{"source": "paper PMC8145986", "about": "“In Vitro Enzymatic and Kinetic Studies, and In Silico Drug-Receptor Interactions, and Drug-Like Profiling of the 5-Styrylbenzamide Derivatives as Potential Cholinesterase and β-Secretase Inhibitors with Antioxidant Properties” (Antioxidants, 2021)", "key": {"[1]": {"assay": "Cytotoxicity (MTT assay) on Vero cells", "settings": "monkey, Vero cells (normal monkey kidney cells)", "method": "(§1) The cytotoxicity activity of the compounds was evaluated using the 3-(4,5-dimethylthiazol-2-yl)-2,5-diphenyltetrazolium bromide (MTT) assay following a modification of a method by Mosmann. Normal monkey kidney cells (Vero cells) and adeno-carcinomic human epithelial cells (A549 cells) were maintained in Dulbecco’s modified Eagle’s medium (DMEM, Gibco) supplemented with 10% fetal bovine serum (FBS) and 1% penicillin/streptomycin in culture flasks and incubated at 37 °C in 5% CO2. […] Cells were seeded at 1 × 10^5 cells/well and incubated overnight to allow cell attachment. After 24 h, treatments were administered with different concentrations (0, 2.5, 5, 10, 25, 50, and 100 μM) of the compounds and doxorubicin (positive control). After 24 h of incubation, 20 μL of the MTT solution (5 mg/mL) was added in all the wells, which was followed by 4 h of incubation."}, "[2]": {"molecular_target": "T1, β-secretase (Homo sapiens, UniProt P56817)", "T1 construct": "purchased Thermo Fisher Scientific Corporation; host or cells: baculovirus-expressed", "T1 sequence (P56817 46-501)": "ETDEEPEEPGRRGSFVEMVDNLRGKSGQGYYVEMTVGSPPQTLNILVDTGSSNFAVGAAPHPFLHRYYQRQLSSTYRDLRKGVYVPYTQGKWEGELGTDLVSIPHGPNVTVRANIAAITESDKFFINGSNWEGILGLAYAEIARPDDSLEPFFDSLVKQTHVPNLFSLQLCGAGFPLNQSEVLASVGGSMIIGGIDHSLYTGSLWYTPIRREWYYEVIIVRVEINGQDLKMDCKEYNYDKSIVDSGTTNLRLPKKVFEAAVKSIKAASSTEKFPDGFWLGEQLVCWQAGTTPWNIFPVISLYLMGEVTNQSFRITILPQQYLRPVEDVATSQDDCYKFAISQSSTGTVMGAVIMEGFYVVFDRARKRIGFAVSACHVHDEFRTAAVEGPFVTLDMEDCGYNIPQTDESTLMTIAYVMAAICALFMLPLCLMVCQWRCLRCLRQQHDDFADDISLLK", "assay": "β-Secretase (BACE-1) inhibition assay", "format": "biochemical", "settings": "mean ± SD of three independent experiments", "method": "The β-secretase inhibitory activities of the test compounds were assayed in triplicates in 96-well plates using a recombinant baculovirus-expressed β-secretase and a specific substrate (Rh-[…]-Quencher), according to the manufacturer’s (Thermo Fisher Scientific Corporation, Johannesburg, Gauteng, South Africa) instructions, as described in our previous study. […] To each well, 2.0 μL human recombinant β-secretase (1.0 U/mL) was added to start the reaction and the reaction mixture was incubated for 60 min at room temperature. […] The IC50 and standard deviation values of both the test compounds and reference standard were calculated using the Graph Pad Prism."}, "[3]": {"molecular_target": "T2, AChE (Homo sapiens, UniProt P22303)", "T2 construct": "purchased BioLegend (via Biocom Africa (Pty) Ltd.)", "T2 sequence (P22303 32-614)": "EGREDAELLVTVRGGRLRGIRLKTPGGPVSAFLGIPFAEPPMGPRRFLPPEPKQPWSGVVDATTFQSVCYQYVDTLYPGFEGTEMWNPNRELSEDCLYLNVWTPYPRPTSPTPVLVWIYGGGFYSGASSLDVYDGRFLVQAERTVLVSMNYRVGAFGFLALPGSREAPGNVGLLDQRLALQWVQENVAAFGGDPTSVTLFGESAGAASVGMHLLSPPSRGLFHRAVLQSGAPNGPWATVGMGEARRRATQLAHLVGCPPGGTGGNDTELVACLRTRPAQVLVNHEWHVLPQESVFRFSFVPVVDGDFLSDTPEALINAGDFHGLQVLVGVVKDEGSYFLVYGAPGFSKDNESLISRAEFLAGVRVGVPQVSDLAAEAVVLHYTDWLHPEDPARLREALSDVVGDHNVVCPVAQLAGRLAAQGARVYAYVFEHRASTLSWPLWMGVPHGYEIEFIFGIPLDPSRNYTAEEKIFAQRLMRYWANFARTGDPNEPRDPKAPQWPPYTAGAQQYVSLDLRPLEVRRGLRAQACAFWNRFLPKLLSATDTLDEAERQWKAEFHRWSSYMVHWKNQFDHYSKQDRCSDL", "assay": "Enzyme kinetic study against AChE (Lineweaver-Burk and Dixon plots)", "format": "biochemical", "method": "(§2) The AChE and BChE enzyme kinetic studies were performed in triplicate in a 96-well plate following a procedure described in our previous study. Varying concentrations of 2a or 3c (0, 2.5, 3.5, and 5 μM) and AChI or BChI (0.1, 0.5, 2.5, and 5 mM) were used for the kinetic assays. The absorbances were measured after every 1 s for 10 s at a wavelength of 412 nm using a microplate spectrophotometer reader. The Lineweaver–Burk plots (plot of the inverse of velocity (1/v) against the inverse of the substrate concentration (1/[S])) were constructed."}, "[4]": {"assay": "in vitro", "settings": "human, A549 cells (adeno-carcinomic human epithelial cells)", "method": "as §1"}, "[5]": {"molecular_target": "T3, BChE (Homo sapiens, UniProt P06276)", "T3 construct": "purchased Cloud-Clone Corp. (via Biocom Africa (Pty) Ltd.)", "T3 sequence (P06276 29-602)": "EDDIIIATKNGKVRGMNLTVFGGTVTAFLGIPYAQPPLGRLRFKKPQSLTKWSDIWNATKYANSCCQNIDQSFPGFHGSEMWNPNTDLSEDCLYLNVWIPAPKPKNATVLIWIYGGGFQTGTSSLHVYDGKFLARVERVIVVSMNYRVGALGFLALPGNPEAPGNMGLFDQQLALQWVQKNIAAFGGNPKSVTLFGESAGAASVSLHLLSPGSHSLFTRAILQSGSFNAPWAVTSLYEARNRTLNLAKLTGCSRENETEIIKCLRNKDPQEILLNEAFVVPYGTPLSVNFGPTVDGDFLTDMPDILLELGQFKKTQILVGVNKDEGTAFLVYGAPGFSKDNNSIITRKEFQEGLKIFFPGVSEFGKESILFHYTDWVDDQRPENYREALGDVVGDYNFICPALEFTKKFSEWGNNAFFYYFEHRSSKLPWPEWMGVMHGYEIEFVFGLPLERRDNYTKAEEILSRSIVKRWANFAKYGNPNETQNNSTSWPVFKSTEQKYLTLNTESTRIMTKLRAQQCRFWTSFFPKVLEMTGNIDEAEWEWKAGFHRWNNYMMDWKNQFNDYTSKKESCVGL", "assay": "Enzyme kinetic study against BChE (Lineweaver-Burk and Dixon plots)", "format": "biochemical", "method": "as §2"}, "[6]": {"molecular_target": "T3, BChE", "assay": "biochemical", "settings": "mean ± SD of three independent experiments", "method": "(§3) The melting point values of the test compounds were recorded on a Thermocouple digital melting point apparatus (Mettler Toledo LLC, Columbus, OH, USA). The infrared (IR) spectra were recorded using the thin-film method on a Bruker VERTEX 70 FT-IR Spectrometer (Bruker Optics, Billerica, MA, USA) equipped with an ATR (diamond attenuated total reflectance) accessory. Merck kieselgel 60 (0.063–0.200 mm) (Merck KGaA, Frankfurt, Germany) was used as a stationary phase for column chromatography. The ^1H-NMR and ^13C-NMR spectra of the prepared compounds were obtained as deuterated dimethyl sulfoxide ((CD3)2SO) solutions using Agilent 500 MHz NMR spectrometer (Agilent Technologies, Oxford, UK) operating at 500 MHz and 125 MHz for ^1H and ^13C, respectively. The chemical shifts are quoted relative to tetramethylsilane (TMS) used as an internal reference standard (δ = 0.00 ppm) or a residual protonated solvent. The high-resolution mass spectra were recorded at an ionization potential of 70 eV using Micromass Autospec-TOF (double focusing high resolution) instrument (Waters Corp., Milford, MA, USA). The synthesis and analytical data for 2-amino-5-iodobenzamide (1) have been reported in our previous study. Recombinant human AChE (BioLegend) and BChE (Cloud-Clone Corp.) were purchased via Biocom Africa (Pty) Ltd. (Centurion, Pretoria, South Africa).\n(§4) AChE and BChE were used to determine cholinesterase activities spectrophotometrically using […] as substrates, respectively, following a modification of the Ellman’s method, as described in our previous study, and the reactions were performed in triplicate at 37 °C in a 96-well plate. […] A multi-channel pipette was used for the addition of reagents to the wells.\nA total of 8.0 μL of the test compound and 2.0 μL of BChE (0.02 mg/mL) was added to each of the designated wells of the 96-well plate, and the mixtures were incubated at room temperature for 30 min. Tris buffer (70 μL) was added to each well containing the reaction mixture and incubation was continued for a further 10 min at this temperature, which was followed by the addition of 10 μL solution of 5,5′-dithiobis-(2-nitrobenzoic acid) (DTNB) (3 mM in Tris buffer, 50 mM, pH 7.7) and butyrylcholine iodide (5 mM in Tris buffer, 50 mM, pH 7.7) to each well to initiate the reaction. […] The IC50 and standard deviation values using the Graph Pad Prism."}, "[7]": {"molecular_target": "T2, AChE", "assay": "biochemical", "settings": "mean ± SD of three independent experiments", "method": "as §3, §4\nTo each well of a 96-well plate, 8.0 μL solution of the test compound, 2.0 μL of AChE (0.04 mg/mL), and 70 μL of Tris buffer (C4H11NO3, 50 mM, pH 7.7) were added sequentially. The assay mixture was pre-incubated for 30 min at room temperature, which was followed by the addition of 10 μL of 5,5′-dithiobis-(2-nitrobenzoic acid) (DTNB, 3 mM in Tris buffer, 50 mM, pH 7.7) and 10 μL of […] (AChI, 5 mM in tris buffer, 50 mM, pH 7.7) to each well to initiate the reaction. […] The average values obtained from the absorbance readings were used to determine the IC50 and standard deviation values using the Graph Pad Prism (version 5.0, GraphPad software Inc., San Diego, CA, USA)."}, "[8]": {"molecular_target": "T1, β-secretase", "assay": "Enzyme kinetic study on β-secretase (Lineweaver-Burk and Dixon plots)", "format": "biochemical", "method": "Compounds 2a and 3b were subjected to kinetic studies on β-secretase using substrate concentrations 150, 300, and 450 nM at increasing inhibitor concentrations (0, 4, 8, and 16 μM) following a method reported before. The fluorescence readings were recorded after every 1 s for 10 s at excitation and emission values of 545 nm and 590 nm, respectively. The Lineweaver–Burk plots (plots of the inverse of velocity against the inverse of the substrate concentration) were constructed to assess changes in enzymatic parameters. The Dixon plots were also prepared to determine the inhibitor constants, Ki."}}, "data": [{"compound": "NC(=O)c1cc(/C=C/c2ccccc2)ccc1N", "note": "[Compound 2a, (E)-2-Amino-5-styrylbenzamide]", "values": [{"measurement": "IC50 at 24 h", "setting": "[1]", "value": "163 ± 0.55", "unit": "µM"}, {"measurement": "IC50", "setting": "[2]", "value": "15.8 ± 0.26", "unit": "µM"}, {"measurement": "mode of inhibition AChE", "setting": "[3]", "value": "non-competitive"}, {"measurement": "Ki", "setting": "[3]; read-out: Ki (Dixon plot) AChE", "value": 1.2, "unit": "µM"}, {"measurement": "IC50 at 24 h", "setting": "[4]", "value": "35.4 ± 0.13", "unit": "µM"}, {"measurement": "mode of inhibition BChE", "setting": "[5]", "value": "mixed mode"}, {"measurement": "Ki", "setting": "[5]; read-out: Ki (Dixon plot) BChE", "value": 2, "unit": "µM"}, {"measurement": "IC50", "setting": "[6]", "value": "4.7 ± 0.32", "unit": "µM"}, {"measurement": "IC50", "setting": "[7]", "value": "2.3 ± 0.11", "unit": "µM"}, {"measurement": "mode of inhibition β-secretase", "setting": "[8]", "value": "mixed mode"}, {"measurement": "Ki", "setting": "[8]; read-out: Ki (Dixon plot) β-secretase", "value": "3.44 ± 0.3", "unit": "µM"}]}]}
